Test results: patent US3996359A, “Novel stereoisomeric component A of stereoisomeric mixtures of 2'-unsymmetrical 16,17-methylenedioxy steroid 21-acylates, compositions thereof, and method of treating therewith” (AB Bofors, priority 1972, dated 1976)

Tested on: rats subjected to adrenalectomy (granuloma around implanted cotton wads)
Assay: granulom test (cotton-pellet test) on rats subjected to adrenalectomy: granuloma growth, thymus weight, body weight increase
Format: in vivo, rat (Sprague-Dawley)
Settings: for Dose required to obtain 50% inhibition of Granuloma growth: Table 3, adrenalectomized young male Sprague-Dawley rats, topical in implanted cotton wads, day 8; for Dose required to obtain 25% inhibition of Body weight Increase / Dose required to obtain 50% inhibition of Thymus weight: 11520 min
Text: In the following this active stereoisomeric component will always be designated B. As regards the steroids referred to in connection with the present invention the stereoisomeric mixture as well as the individual stereoisomeric components A and B have been investigated with regard to antiinflammatory activity in granulom test on rats subjected to adrenalectomy. The experimental procedure used corresponds largely to that described by G. Engelhardt: Arzneimittel-Forschung, 13, p. 588, 1963. According to this procedure the test substances are applied topically in the implanted cottom wads. It is thereby possible to study the local antiinflammatory effect in granulomas and also systemic effects in the form of retrogression of thymus and inhibition of bodyweight growth.
Young male rats of the Sprague-Dawley strain weighing about 110-130 g were subjected to adrenalectomy under ether narcosis. Two sterilized cottom wads of each about 6 mg were implanted simultaneously subcutaneously on the lateral side of the spinal. After awakening the animals were stored 5 per cage and were supplied with normal food and 1% sodium chloride solution as drinking water. On the eighth test day the animals were sacrificed by ether narcosis. The granuloma formed around the cotton wads were carefully recovered and thymus and body weights were measured. The two granuloma from each animal were dried over night at 80° C and weighed. After subtraction of the initial weight of the cotton wads the weight increase was used as a measure of the granulom growth.
The test substances were used dissolved in ethyl acetate. Under aseptic conditions 0.05 ml of said solutions were injected into each of the cotton wads, whereafter the solvent was allowed to evaporate in the desiccator. Normally 3 concentrations of each test substance with the standard doses 3.3, 30 and 270 γ/animal were investigated. Each test group normally comprised 10 rats. The cotton wads of the control group were injected with only ethyl acetate, but were in other respects treated in the same way. When considering the effects of the test substances the average values of granulom growth, thymus weight and body weight increase day 0-8 were measured in each group in absolute figures and in % of the corresponding figure of the control group. Dose-response curves were drafted and used for estimating the doses giving 50 % reduction of granulom growth and of thymus weight and 25 % decrease of body weight increase.
The following Table 4 discloses the results of the cotton-pellet test hereinbefore described, giving in addition figures for the therapeutic ratios, that is, the ratios of the ED50 for thymus weight inhibition divided by the ED50 for granuloma formation inhibition, and the ED25 for body weight increase inhibition over the ED50 for granuloma formation inhibition. As will be recognized, the higher the number for the therapeutic ratio, the more favorable the therapeutic ratio. […] As will be noted for the table, the therapeutic ratio for thymus over granuloma for the Component A esters is 4.2, 7.1, 4.5, 2.6, 2.2, 1.7, 2.5 and 1.7 times as good as it is for the corresponding Component B ester isomer, whereas the therapeutic ratio for the Component A ester isomer as far as body weight is granuloma 2.7, 3.3, 9.8, 6.4, 2.3, 2.8, 3.3 and 2.8 times as favorable as for the corresponding Component B ester isomer.

[1] = Table 4, ED25 body weight increase inhibition over ED50 granuloma formation inhibition
[2] = Table 4, ED50 thymus weight inhibition divided by ED50 granuloma formation inhibition

Row | Structure (SMILES) | Therapeutic ratio body weight/granuloma [1] | Therapeutic ratio thymus/granuloma [2] | ED25 body weight increase inhibition (rat, in vivo) | ED50 thymus weight inhibition (rat, in vivo) | Dose required to obtain 50% inhibition of Granuloma growth | Dose required to obtain 25% inhibition of Body weight Increase (rat, in vivo) | Dose required to obtain 50% inhibition of Thymus weight (rat, in vivo) | Therapeutic ratio body weight/granuloma (rat, in vivo) | Therapeutic ratio thymus/granuloma (rat, in vivo)
1 | CC1O[C@@H]2C[C@H]3[C@@H]4C[C@H](F)C5=CC(=O)C=C[C@]5(C)[C@@]4(F)[C@@H](O)C[C@]3(C)[C@]2(C(=O)COC(=O)c2cc3ccccc3o2)O1 (stereo partly drawn) [23 B] | > 1.0 | > 1.3 | 3 µg/animal | 4 µg/animal | – | – | – | – | –
2 | CCCC1OC2CC3C4CCC5=CC(=O)C=CC5(C)C4C(O)CC3(C)C2(C(=O)COC(C)=O)O1 (mixture of isomers) [27 A+B] | – | – | – | – | < 3 γ/animal | 40 γ/animal | 60 γ/animal | – | –
3 | CC1O[C@@H]2C[C@H]3[C@@H]4CCC5=CC(=O)C=C[C@]5(C)[C@@]4(F)[C@@H](O)C[C@]3(C)[C@]2(C(=O)COC(=O)c2cccnc2)O1 (single isomer, unassigned) [17 A] | – | – | – | – | 7 γ/animal | 20 γ/animal | 45 γ/animal | – | –
4 | CCCCC(=O)OCC(=O)[C@@]12OC(C)O[C@@H]1C[C@H]1[C@@H]3CCC4=CC(=O)C=C[C@]4(C)[C@@]3(F)[C@@H](O)C[C@@]12C (single isomer, unassigned) [18 A] | – | – | 33 µg/animal | 70 µg/animal | < 3 γ/animal | 33 γ/animal | 70 γ/animal | > 11.0 | > 23.3
5 | CC1O[C@@H]2C[C@H]3[C@@H]4CCC5=CC(=O)C=C[C@]5(C)[C@@]4(F)[C@@H](O)C[C@]3(C)[C@]2(C(=O)COC(=O)c2cc3ccccc3o2)O1 (stereo partly drawn) [16 A] | > 9.0 | 14.0 | > 45 µg/animal | 70 µg/animal | 5 γ/animal | > 45 γ/animal | 70 γ/animal | – | –
6 | CCCCC(=O)OCC(=O)[C@@]12OC(CCC)O[C@@H]1C[C@H]1[C@@H]3CCC4=CC(=O)C=C[C@]4(C)[C@@]3(F)[C@@H](O)C[C@@]12C (single isomer, unassigned) [22 B] | – | – | 3 µg/animal | 35 µg/animal | < 3 γ/animal | 5 γ/animal | 35 γ/animal | > 1.7 | > 11.7
7 | CCCC1O[C@@H]2C[C@H]3[C@@H]4CCC5=CC(=O)C=C[C@]5(C)[C@@]4(F)[C@@H](O)C[C@]3(C)[C@]2(C(=O)CO)O1 (single isomer, unassigned) [3 A] | – | – | – | – | 25 γ/animal | > 30 γ/animal | > 30 γ/animal | – | –
8 | CC1O[C@@H]2C[C@H]3[C@@H]4CCC5=CC(=O)C=C[C@]5(C)[C@@]4(F)[C@@H](O)C[C@]3(C)[C@]2(C(=O)CO)O1 (single isomer, unassigned) [1 A] | – | – | – | – | 270 γ/animal | 60 γ/animal | 115 γ/animal | – | –
9 | CC1O[C@@H]2C[C@H]3[C@@H]4C[C@H](F)C5=CC(=O)C=C[C@]5(C)[C@@]4(F)[C@@H](O)C[C@]3(C)[C@]2(C(=O)COC(=O)c2cc3ccccc3o2)O1 (stereo partly drawn) [23 A] | > 3.3 | > 3.3 | 10 µg/animal | 10 µg/animal | – | – | – | – | –
10 | CC1O[C@@H]2C[C@H]3[C@@H]4CCC5=CC(=O)C=C[C@]5(C)[C@@]4(F)[C@@H](O)C[C@]3(C)[C@]2(C(=O)COC(=O)c2cccnc2)O1 (single isomer, unassigned) [17 B] | – | – | – | – | 3 γ/animal | 20 γ/animal | 13 γ/animal | – | –
11 | CCCC1OC2CC3C4CCC5=CC(=O)C=CC5(C)C4(F)C(O)CC3(C)C2(C(=O)COC(=O)c2cc3ccccc3o2)O1 (mixture of isomers) [20 A+B] | – | – | – | – | < 3 γ/animal | 20 γ/animal | 25 γ/animal | – | –
12 | CC1O[C@@H]2C[C@H]3[C@@H]4C[C@H](F)C5=CC(=O)C=C[C@]5(C)[C@@]4(F)[C@@H](O)C[C@]3(C)[C@]2(C(=O)CO)O1 (single isomer, unassigned) [7 B] | – | – | – | – | 10 γ/animal | 15 γ/animal | 6 γ/animal | – | –
13 | CC1O[C@@H]2C[C@H]3[C@@H]4C[C@H](F)C5=CC(=O)C=C[C@]5(C)[C@@]4(F)[C@@H](O)C[C@]3(C)[C@]2(C(=O)CO)O1 (single isomer, unassigned) [7 A] | – | – | – | – | 15 γ/animal | 20 γ/animal | 12 γ/animal | – | –
14 | CCCCCC1O[C@@H]2C[C@H]3[C@@H]4CCC5=CC(=O)C=C[C@]5(C)[C@@]4(F)[C@@H](O)C[C@]3(C)[C@]2(C(=O)CO)O1 (single isomer, unassigned) [5 B] | – | – | – | – | 10 γ/animal | > 270 γ/animal | 90 γ/animal | – | –
15 | CC1(C)O[C@@H]2C[C@H]3[C@@H]4CCC5=CC(=O)C=C[C@]5(C)[C@H]4[C@@H](O)C[C@]3(C)[C@]2(C(=O)CO)O1 [Prednacinolone acetonide, reference compound] | – | – | – | – | 270 γ/animal | > 270 γ/animal | 105 γ/animal | – | –
16 | CCCC1O[C@@H]2C[C@H]3[C@@H]4C[C@H](F)C5=CC(=O)C=C[C@]5(C)[C@@]4(F)[C@@H](O)C[C@]3(C)[C@]2(C(=O)COC(=O)c2cc3ccccc3o2)O1 (single isomer, unassigned) [25 B] | – | – | 20 µg/animal | 7 µg/animal | < 3 γ/animal | 20 γ/animal | 7 γ/animal | > 2.9 | > 2.3
17 | CCCC1O[C@@H]2C[C@H]3[C@@H]4C[C@H](F)C5=CC(=O)C=C[C@]5(C)[C@@]4(F)[C@@H](O)C[C@]3(C)[C@]2(C(=O)CO)O1 (single isomer, unassigned) [8 A] | – | – | – | – | 6 γ/animal | 50 γ/animal | 13 γ/animal | – | –
18 | CCCC1O[C@@H]2C[C@H]3[C@@H]4CCC5=CC(=O)C=C[C@]5(C)[C@H]4[C@@H](O)C[C@]3(C)[C@]2(C(=O)CO)O1 (single isomer, unassigned) [12 B] | – | – | – | – | 40 γ/animal | 50 γ/animal | 70 γ/animal | – | –
19 | CCCCC1O[C@@H]2C[C@H]3[C@@H]4CCC5=CC(=O)C=C[C@]5(C)[C@@]4(F)[C@@H](O)C[C@]3(C)[C@]2(C(=O)CO)O1 (single isomer, unassigned) [4 A] | – | – | – | – | < 3 γ/animal | 170 γ/animal | 100 γ/animal | – | –
20 | CCCC1O[C@@H]2C[C@H]3[C@@H]4CCC5=CC(=O)C=C[C@]5(C)[C@H]4[C@@H](O)C[C@]3(C)[C@]2(C(=O)CO)O1 (single isomer, unassigned) [12 A] | – | – | – | – | 125 γ/animal | > 270 γ/animal | 125 γ/animal | – | –
21 | CCCC1O[C@@H]2C[C@H]3[C@@H]4CCC5=CC(=O)C=C[C@]5(C)[C@@]4(F)[C@@H](O)C[C@]3(C)[C@]2(C(=O)COC(=O)c2cccnc2)O1 (single isomer, unassigned) [21 B] | – | – | – | – | < 3 γ/animal | 5 γ/animal | 10 γ/animal | – | –
